Experimental data as given in patent EP3906926A1, “PROLINE HYDROXYLASE INHIBITORS FOR USE IN THE SKELETAL MUSCLE REGENERATION” (Policlinico San Donato S.p.A.- Istituto di Ricovero e Cura …, priority 2020, dated 2021).

What was measured:
WNT7a promoter = assay: Nano-Glo luciferase reporter assay of pNL1.1-WNT7a promoter activity; type: cell-based, murine; conditions: 24 hours at IC50 working concentrations
Procedure: Genomic DNA was extracted from C2C12 murine myoblast and used as the template for WNT7a promoter amplification. The PCR reaction was prepared using a Phusion High-Fidelity kit (New England Biolabs) and employing the following primers: forward 5'-[…]-3' (SEQ ID NO:1), containing KpnI enzymatic site, and reverse 5'-[…]-3' (SEQ ID NO:2) containing the HindIII enzymatic site. The PCR fragment and the vector pNL1.1(Nluc) (Promega) were digested with KnpI and HindIII (Promega) restriction enzymes for 2 hours at 37°C and, then, they were purified from agarose gel using Wizard® SV Gel and PCR Clean-Up System (Promega). The fragment was inserted into the multiple cloning site of pNL1.1 vector using T4 Ligase Fast (Promega) and the reaction was incubated for 1 hour at room temperature. The presence of the insert in the plasmid was finally verified by DNA sequencing.
Briefly, cells were seeded in a 96-well plate at a concentration of 5 x 10^3 cells per well, transfected with the pNL1.1 or pNL1.1WNT7a_promoter (90 ng) plasmids and pGL4.54(luc2/TK) (10 ng) plasmid as internal control, according to ViaFect Transfection Reagent® protocol (Promega), and then incubated for 24 hours. […] To turn off the luminescence of the Firefly luciferase and provide the substrate for the Nanoluc, an equal volume of NanoDLR™ Stop&Glo® Reagent was added to the mixture and incubated for 30 minutes before analysis.

C57Bl/6N mice = assay: Cardiotoxin-induced muscle regeneration in mice; type: in vivo; conditions: single i.p. injection 10 mg/kg one day before CTX injury; 7 days after injury; laminin staining; vs saline
Procedure: Experiments on muscle regeneration were conducted on 8-10 weeks old male C57Bl/6N mice, matched for weight, and purchased from Charles River Laboratories (Calco, Italy).
Cardiotoxin (CTX, from Naja mossambica, Latoxan, Portes-les-Valence, France, http://www.latoxan.net/) was dissolved in sterile saline to a final concentration of 10 µM. Mice were anesthetized by isofluorane inhalation and hindlimbs were shaved and cleaned with alcohol. Tibialis anterior (TA) muscles were injected with 45 µl of CTX with a 30-gauge needle, with 15 micro-injections of 3 µl CTX each in the mid-belly of the muscle to induce a homogeneous damage. The TA muscles of the contralateral hindlimbs were injected with a saline solution.
DMSO, diluted at 2% in saline solution, was inoculated by i.p. injection to control mice. […] Mice were sacrificed seven days after cardiotoxin treatment.
Briefly, TA muscles were frozen in liquid nitrogen-cooled isopentane and mounted in Killik embedding medium (Bio-optica). Transverse muscle sections (7 µm) were cryosectioned from the midbelly of each muscle. Sections were stained with Hematoxylin (Bio-optica)/Eosin (Merck) to reveal general muscle architecture. […] Images were acquired using Axio Lab.A1 (Zeiss) and quantified with ImageJ v1.49o software.

SMILES | WNT7a promoter activation, luminescence increase (WNT7a promoter) | enhancement of cross-sectional area (CSA) of regenerating myofibers (C57Bl/6N mice) | increase of minimal Feret diameter of regenerating myofibers (C57Bl/6N mice)
O=C(O)CNC(=O)c1c(O)c2ccccc2n(Cc2ccccc2)c1=O [IOX2] | 1.4 fold | – | –
Cc1nc(C(=O)NCC(=O)O)c(O)c2ccc(Oc3ccccc3)cc12 [FG-4592, Roxadustat] | 1.3 fold | 25% | 8%
